Legend:
GH16B β-agarase = experiment: Agarase activity assay (DNS method): effects of metal ions, reducing agent and EDTA on enzymatic activity; assay type: biochemical, Cellvibrio sp. KY-GH-1; conditions: for Relative activity (%): relative to untreated control, mean ± SD (n = 3); for Effect on the enzymatic activity: 0.5 to 2.5 mM
Experimental: (§1) Quantitative analysis of GH16B β-agarase activity was performed using the DNS method, which detects reducing sugars released from agarose. The enzyme solution (100 μL) was mixed with an equal volume of 0.8% melted agarose in an appropriate buffer. The content of reducing sugars formed in the reaction mixture was determined colorimetrically using DNS reagent after 30 min of incubation at 50° C. The amount of enzyme that produced reducing power equivalent to 1 μmol of D-galactose per min was defined as one unit of enzymatic activity.
(§2) The optimal temperature was determined using 50 mM Tris-HCl buffer (pH 7.0) for 30 min over a temperature range of 25 to 70° C. The optimal pH was determined using 50 mM Mollvaine buffer ([…] to 7.5) and 50 mM Tris-HCl buffer (pH 7.5 to 10.0). For temperature and pH stability assays, aliquots of enzyme were preincubated at the indicated temperature and pH for the indicated time, and then the relative enzyme activity was measured under standard assay conditions (30 min, 50° C., 50 mM Tris-HCl buffer, pH 7.0). The kinetic parameters of GH16B β-agarase were determined by adding a known amount of the enzyme solution to the agarose substrate solution (1 to 5 mg/mL agarose in 50 mM Tris-HCl, pH 7.0). The Lineweaver-Burk equation, generated via GraphPad Prism 8 statistical package (GraphPad Software Inc., USA), was used to calculate Km and Vmax values. To examine the effects of metal ions, reducing agent, and chelator EDTA on enzymatic activity, various metal ions (CaCl2, CuSO4, KCl, MgCl2, MnCl2, MnSO4, and NaCl), TCEP, or EDTA were used at the indicated concentrations under standard analytical conditions.

[1] = Kinetic parameters of GH16B β-agarase (Lineweaver-Burk, DNS method); assay type: biochemical; conditions: for agarose
Experimental: as §1, §2

[2] = Experimental: as §1
as §2, with “The optimal temperature was determined using 50 mM Tris-HCl buffer (pH 7.0) for 30 min over a temperature range of 25 to 70° C.” left out

[3] = Zymogram for agarase activity on LB agarose plates (Lugol's iodine); assay type: cell-based, E. coli BL21 (DE3) pLysS transformants; conditions: among transformants expressing GH16A, GH16B, GH16C, GH16D β-agarases
Experimental: E. coli BL21 (DE3) pLysS transformants harboring the recombinant pET-30a plasmid containing GH16A, GH16B, GH16C, or GH16D were spotted onto LB agarose plates (containing 1.5% agarose ((Invitrogen, Life technology, Grand Island, NY, USA), 50 μg/mL chloramphenicol, 25 μg/mL kanamycin, and 0.1 mM IPTG) and then incubated for 3 days at 37° C. The plates were stained with Lugol's at room iodine solution temperature.

[4] = Substrate hydrolysis and agarose liquefaction analysed by TLC and MALDI-TOF/TOF MS; assay type: biochemical
Experimental: TLC analysis was performed for GH16B β-agarase-catalyzed hydrolysates of agarose, NAOS, or AOS on Silica Gel 60 aluminum plates, which were developed with n-butanol-ethanol-H2O [3:2:2 (v/v)]. To detect oligosaccharides, a visualization solution (containing 0.2% (w/v) naphthoresorcinol, 10% (v/v) H2SO4, ethanol) was sprayed, followed by heating at 80° C. NA2 and the NAOS standard mixture containing NA2-NA18 were used as standards.
MALDI-TOF/TOF MS was performed according to previously described methods to analyze the hydrolytic products of agarose or AOS through enzymatic reactions. The assisted laser desorption/ionization tandem time-of-flight mass spectrometry (MALDI-TOF/TOF MS) was performed in the positive ion reflectron mode using the ultraflextreme system (Bruker Daltonics). The purified reaction product was dissolved in water, 1 μL of the dissolved reaction product was spotted onto a stainless steel target plate, and 0.3 μL of 0.01 M NaCl and […] of 50 mg/mL 2,5-dihydroxybenzoic acid in 50% acetonitrile were added thereto. The spots were rapidly dried under vacuum for homogeneous crystallization. Each acquired spectrum represents the combined signal from 800 laser shots at each of 3 random locations on the spot, totaling 2,400 laser shots, using a 1-kHz laser. The laser attenuator offset and range were set at 68% and 15%, respectively, with the laser focus set at 50%. Mass spectra were recorded over an m/z range of 0 to 5,100. To obtain high-resolution data, the detector sampling rate was set at a maximum of 4.00 giga samples/s, and the detector gain was set at 4.0×. Mass spectra were externally calibrated using maltooligosaccharides isolated from commercial beer. A ladder of hexose polymers, spaced 1 hexose unit (162.053 Da) apart, provided comprehensive coverage of the entire mass acquisition range, enabling the accurate mass calibration of the MALDI-TOF/TOF MS just prior to the sample analysis. Raw MS data were processed with FlexAnalysis software (version 3.3; Bruker Daltonics). […]

[Cl-].[Na+] [NaCl]
Relative activity (%) (GH16B β-agarase; 0.5 mM metal ion/chemical): 100 (±0.30) % | Relative activity (%) (GH16B β-agarase; 1.0 mM metal ion/chemical): 109 (±5.33) % | Relative activity (%) (GH16B β-agarase; 2.5 mM metal ion/chemical): 101 (±2.25) % | Effect on the enzymatic activity (GH16B β-agarase): no significant effect

[Cl][Mn][Cl] [MnCl2]
Relative activity (%) (GH16B β-agarase; 0.5 mM metal ion/chemical): 125 (±1.40) % | Relative activity (%) (GH16B β-agarase; 1.0 mM metal ion/chemical): 163 (±2.60) % | Relative activity (%) (GH16B β-agarase; 2.5 mM metal ion/chemical): 155 (±3.00) %

O=S(=O)([O-])[O-].[Mn+2] [MnSO4]
Relative activity (%) (GH16B β-agarase; 0.5 mM metal ion/chemical): 146 (±1.95) % | Relative activity (%) (GH16B β-agarase; 1.0 mM metal ion/chemical): 156 (±0.70) % | Relative activity (%) (GH16B β-agarase; 2.5 mM metal ion/chemical): 156 (±1.90) %

O=C(O)CN(CCN(CC(=O)O)CC(=O)O)CC(=O)O [EDTA, ethylenediamine tetraacetic acid, reference compound]
Relative activity (%) (GH16B β-agarase; 0.5 mM metal ion/chemical): 95 (±4.75) % | Relative activity (%) (GH16B β-agarase; 1.0 mM metal ion/chemical): 95 (±2.02) % | Relative activity (%) (GH16B β-agarase; 2.5 mM metal ion/chemical): 91 (±4.35) % | Effect on the enzymatic activity (GH16B β-agarase): no significant effect

O=S(=O)([O-])[O-].[Cu+2] [CuSO4]
Relative activity (%) (GH16B β-agarase; 0.5 mM metal ion/chemical): 103 (±0.25) % | Relative activity (%) (GH16B β-agarase; 1.0 mM metal ion/chemical): 97 (±1.45) % | Relative activity (%) (GH16B β-agarase; 2.5 mM metal ion/chemical): 74%

[Cl-].[K+] [KCl]
Relative activity (%) (GH16B β-agarase; 0.5 mM metal ion/chemical): 103 (±1.20) % | Relative activity (%) (GH16B β-agarase; 1.0 mM metal ion/chemical): 109 (±6.41) % | Relative activity (%) (GH16B β-agarase; 2.5 mM metal ion/chemical): 104 (±3.45) % | Effect on the enzymatic activity (GH16B β-agarase): no significant effect

[Cl-].[Cl-].[Mg+2] [MgCl2]
Relative activity (%) (GH16B β-agarase; 0.5 mM metal ion/chemical): 94 (±2.80) % | Relative activity (%) (GH16B β-agarase; 1.0 mM metal ion/chemical): 107 (±0.80) % | Relative activity (%) (GH16B β-agarase; 2.5 mM metal ion/chemical): 100 (±3.55) % | Effect on the enzymatic activity (GH16B β-agarase): no significant effect

O=C(O)CCP(CCC(=O)O)CCC(=O)O [TCEP, tris(2-carboxyethyl)phosphine, reference compound]
Relative activity (%) (GH16B β-agarase; 0.5 mM metal ion/chemical): 100 (±1.55) % | Relative activity (%) (GH16B β-agarase; 1.0 mM metal ion/chemical): 109 (±2.85) % | Relative activity (%) (GH16B β-agarase; 2.5 mM metal ion/chemical): 117 (±6.00) % | Enhancement of enzymatic activity (GH16B β-agarase; 5 to 15 mM TCEP, dose-dependent, 0.8 μg/mL enzyme, 0.4% agarose, pH 7.0, 50° C., 30 min): up to 1.6 fold

[Ca+2].[Cl-].[Cl-] [CaCl2]
Relative activity (%) (GH16B β-agarase; 0.5 mM metal ion/chemical): 96 (±1.80) % | Relative activity (%) (GH16B β-agarase; 1.0 mM metal ion/chemical): 110 (±6.85) % | Relative activity (%) (GH16B β-agarase; 2.5 mM metal ion/chemical): 103 (±0.90) % | Effect on the enzymatic activity (GH16B β-agarase): no significant effect

B1: GH16B β-agarase: Thermostable endolytic GH16 family β-agarase (SEQ ID NO: 1, 597 aa, 63.8 kDa) from Cellvibrio sp. KY-GH-1, expressed in E. coli (protein, listed as Cellvibrio sp.)
chain: MKKITSCIAAALLLSAPLASFAADWDSVPIPAAAGTGKTWQLQSISDEFNYTASPTVKPAEFNTRWNPSFINSWTGPGDSEFNAGHSYTSGGSLALQSSAKAGTNKIYTGIISSKETFTYPLYLEARVKHTGNTLANAVWMLSADSTQEIDAMESYGSDRAGQEWFDQRMHVSHHVFIRSPFQDYQPKDEGSWVVNPAGGTWRGAMHVYGVHWKDPWNLDYYIDGVKVRTVSGPAMIDPYNFTNGTGINKPLHIIIDVEHQDWRDVRPTAAELADTSKSIMFVDWIRVYKPVTSSATSSSNSVSSSSSSLSNSSSSSATTVIDFANYFDTGKSTASVAGDTYVGFNKSGSGNINYNTAGDWADYLVTLPSDGQYKIEVTTASPMTSGIGAKLSVDGIYVSTTSLAATGGWELYSASTLANNLSIGAGTHTVRIESTGTSAWQWNGDEIRVTKVGSAPVGSPTTPAPVAMIIQAESFSATGGVYDGFKTYSVNGVSAINYNQRGDWADYAVNVAADGSYTFNAYVSSPMSGAALEVSVDGVKVLTQAVPNNGSWDSFQKVSSASKIALTKGAHTIRVTSAGTTSSTWEWNADKFELIP
Vmax [1]: 542.0 U/mg | kcat [1]: 576.3 s⁻¹ | Km ([1]; 50 mM Tris-HCl, pH 7.0): 14.40 mg/mL | Optimum pH [2]: 7.0 | Optimal temperature (highest activity) ([2]; 0.4% agarose, 0.8 μg/mL enzyme, pH 7.0, 30 min): 50 °C | Maximum activity retained ([2]; over the range of 25 to 60° C.): more than 80% | pH stability ([2]; pH 4): rapidly became inactive | Agarose-degrading activity (bright clear zone around the colonies) [3]: highest | Agarose concentration completely hydrolysed into NA4/NA6 ([4]; 1.6 μg/mL enzyme, 1 mM MnCl2, 10 mM TCEP, 50 mM Tris-HCl, pH 7.5, 50° C., 14 hours, magnetic stirring): up to 9.0% | End products of hydrolysis ([4]; AOS substrate): NA4/NA6 but also A5 | End products of hydrolysis ([4]; agarose substrate): NA4 and NA6

Reference: patent US20260035722A1, “METHOD FOR LIQUEFYING AGAROSE AND PRODUCING NEOAGAROTETRAOSE/NEOAGAROHEXAOSE BY USING THERMOSTABLE GH16B BETA-AGARASE DERIVED FROM NOVEL AGAR-DEGRADING BACTERIUM” (Kyungpook National University Industry-Academic Cooperation …, priority 2022, published 2026)
